Assay [1] has as its target T1, Islet amyloid polypeptide (Homo sapiens) (UniProt P10997).
T1 sequence (whole entry): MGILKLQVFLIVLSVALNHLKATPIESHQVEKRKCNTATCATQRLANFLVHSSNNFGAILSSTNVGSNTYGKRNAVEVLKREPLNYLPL
The assay can be described thus: Inhibition of IAPP assembly at 1:1 protein to compound ratio after 29 days by NMR analysis.

The target in assay [2] is T1, Islet amyloid polypeptide (Homo sapiens). The assay can be described thus: Activity of IAPP assessed as maximal rate of self-assembly at 1:1 protein to compound ratio by NMR analysis (reference value: 12.2/day).
The target is the same in assay [3]. Kind of assay: Inhibition of IAPP assembly at 1:1 protein to compound ratio after 18 to 31 days by NMR analysis.
Assay [4] is described as follows: Inhibition of IAPP (11 to 25) S20G mutant assembly at 1:1 protein to compound ratio after 1 to 8 days by TOCSY spectra analysis.
Assay [5] addresses T1, Islet amyloid polypeptide (Homo sapiens). Kind of assay: Inhibition of IAPP assembly assessed as prenucleation period at 1:1 protein to compound ratio by NMR analysis.
For assay [6] the target is unchanged. The assay can be described thus: Inhibition of IAPP assembly assessed as nucleation period at 1:1 protein to compound ratio (reference value: 15.3 days).
Assay [7] shares this target. The assay can be described thus: Inhibition of IAPP fibrillation at 1:1 protein to compound ratio after 44 days by transmission electron microscopy.
Assay [8] shares this target. Kind of assay: Inhibition of IAPP assembly at 1:1 protein to compound ratio after 1 to 5 days by circular dichroism spectra analysis.

The structures appear in SMILES notation. Calls of active or inactive are those of the source. No cut-off for these calls is given here.

Turning to `COc1cc(/C=C/C(=O)CC(=O)/C=C/c2ccc(O)c(OC)c2)ccc1O`, the inhibition result in assay [1] and in assay [7] was “inactive” throughout. For the same compound, the Activity in assay [2] stood at 15.1 day⁻¹. Besides, the inhibition entry in assay [3], in assay [4] and in assay [8] was “Active” in each case. The figures for the TIME in assay [5] and in assay [6] were 408 h and 290 h, respectively.

The values above are taken from ChEMBL document CHEMBL2176941, “Kinetic profile of amyloid formation in the presence of an aromatic inhibitor by nuclear magnetic resonance” (ACS Med Chem Lett, 2012).
